We go through two substances from patent publication US10273278B2, “Epitope recognized by anti-interferon gamma autoantibodies in patients with disseminated mycobacterial infections and the application therefor” (priority 2015, dated 2019).

Ends that are not written are not given here.

Assay [1] relates to anti-IFNr AutoAbs. Description: Protein mapping ELISA of recombinant IFNr proteins with blood plasma. The class given is binding, human. The note with it: patients' blood plasma, OD 405 nm.
For assay [2], the system named is anti-IFNr AutoAbs. Briefly: Immunoblotting (Western blot / dot blot) with patient or control plasma. The class given is binding, human. The note with it: plasma from healthy donors. The procedure:
Recombinant IFNr[…] (R&D Systems) and different truncated forms of recombinant IFNr[…] were subjected to SDS-PAGE using a 10% gel under reducing conditions at 120 V for 2 hours. The proteins were transferred to a PVDF membrane (Invitrogen Life Technologies) at 250 mA for 2 hours. The membrane was blocked in 5% human normal serum albumin (Aventis) in TBS with 0.1% Tween 20 overnight at 4° C. The membrane was incubated with a 1/100 dilution of patient or control blood plasma for 3 hours at room temperature. After being washed three times, the membrane was incubated in a 1/10,000 dilution of mouse anti-human IgG conjugated with horseradish peroxidase (Jackson ImmunoResearch Laboratories) for 1 hour at room temperature. After being washed three times, the membrane was developed with ECL (Merck Millipore).
Plasma from 3 healthy donors had no response to either IFNr1-131 or EE-IFNr.
(Immunoblotting shows a protein as a band on a membrane.)

The subject of assay [3] is p-STAT1 in PBMCs. Description: p-STAT1 intracellular stain in PBMCs (CD14+ gated). Format: cell-based, human. The procedure:
A total of 10^6 PBMCs in 200 μL RPMI-1640 with 10% FBS and 1% penicillin/streptomycin was used. […] After 30 minutes of stimulation in a 37° C. incubator, monocytes were identified by FITC-CD14 (BD Pharmingen) surface staining. Fixed by adding 250 μL of FASC lysing solution (BD Pharmingen) and incubated at room temperature for 15 minutes in the dark, followed by two washes with PBS. To permeabilize the cells, 500 μl of ice-cold absolute methanol was added to each tube and incubated for 15 minutes on ice in the dark, followed by two washes with PBS. Next, PE-phospho-STAT1 (pY701) antibody (BD Pharmingen) was added, followed by 30 minutes incubation on ice in the dark. Again, cells were washed with 2 mL of PBS before resuspension in the 500 μL of PBS. Data were collected with a FACSVerse flow cytometer (BD Biosciences) and analyzed using FACSuite software (BD Biosciences).
Representative histograms (FIG. 2c(1)-FIG. 2c(2)) and MFI (median fluorescence intensity) (FIG. 2d) are shown.
After being gated on the CD14^+, p-STAT-1 levels were determined by flow cytometry with the p-STAT-1 monoclonal antibody. Representative histograms (FIG. 4a(1)-FIG. 4a(2)) and MFI (median fluorescence intensity) (FIG. 4b) are shown.

Assay [4] deals with IL-12p40 in PBMCs. The class given is cell-based, human.
The test system of assay [5] is HLA-DR expression in PBMCs. Description: HLA-DR expression in PBMCs (CD14+ gated). The class given is cell-based, human. The note with it: IFNr AutoAbs patients' PBMCs pre-incubated with 10% autologous plasma. The procedure:
A total of 10^6 PBMCs in 200 μL RPMI-1640 with 10% FBS and 1% penicillin/streptomycin was used. Cells were then stimulated with 500 IU IFNr, IFNr_1-131 or EE-IFNr⋅ in 160 μL RPMI-1640 pre-incubated with 40 μL of normal blood plasma or patient blood plasma for 10 min at room temperature. After 24 hours of stimulation in a 37° C. incubator, monocytes were identified by FITC-CD14 (BD Pharmingen) surface staining. Next, PE-HLA-DR antibody (BD Pharmingen) was added followed by 30 minutes of incubation on ice in the dark. Cells were again washed with 2 ml of PBS before resuspension in 500 μl of PBS. Data were collected with a FACSVerse flow cytometer (BD Biosciences) and analyzed using FACSuite software (BD Biosciences).
After being gated on the CD14^+, HLA-DR expression levels were determined by flow cytometry with the HLA-DR monoclonal antibody. Representative histograms (FIG. 4d(1)-FIG. 4d(2)) and MFI (median fluorescence intensity) (FIG. 4e) are shown.

In assay [6] the test system is THP1 cells. Description: HLA-DR expression in THP1 cells. The class given is cell-based. The note with it: in the presence of anti-IFNr AutoAbs.
In assay [7] the test system is p-STAT1 in whole blood. Briefly: p-STAT1 in whole blood ex vivo. The class given is cell-based, human. The source says: Representative histograms (FIG. 4f(1)-FIG. 4f(2)) and MFI (median fluorescence intensity) (FIG. 4g) are shown.
The test system of assay [8] is IL-12p40 in whole blood. The class given is cell-based, human.
Assay [9] relates to WKY/NcrlNarl rats. Description: Immunization of rats with Noc2 or IFNr peptide conjugated with OVA. The class given is in vivo, rat. The note with it: 0.25 mg peptide-OVA, booster every two weeks. As to the method: The inventor immunized WKY/NcrlNarl rats with 0.25 mg Noc2 or IFNr[…] peptide (Noc2: […] (SEQ NO: 31); IFNr: […] (SEQ NO: 32)) conjugated with ovalbumin (OVA) and gave a booster dose every two weeks after the initial injection (day 0). After 70 days, the inventor checked the antibody production level by dot blot or ELISA at each injection. All rats were sacrificed ten days after the tenth injection (day 136) and whole blood was collected. After collection of the whole blood, the blood was allowed to clot by leaving it undisturbed at room temperature 15 minutes. Clots were removed by centrifuging at 1500 g for 10 minutes in a refrigerated centrifuge. Sera were aliquoted and stored at −20° C. for further use.
Blood sera from pre-immunized rats (n=6), Noc2 peptide-immunized rats (n=4) and Peptide 6-immunized rats (n=2) were mapped to control peptide, Peptide 6 and Noc2 peptide from Aspergillus terreus or Aspergillus fumigatus. This is represented as the mean optical density (OD) at 405 nm.

Assay [10] deals with T1, human IFNr (Homo sapiens, UniProt P01579).
T1 sequence (P01579 24-166): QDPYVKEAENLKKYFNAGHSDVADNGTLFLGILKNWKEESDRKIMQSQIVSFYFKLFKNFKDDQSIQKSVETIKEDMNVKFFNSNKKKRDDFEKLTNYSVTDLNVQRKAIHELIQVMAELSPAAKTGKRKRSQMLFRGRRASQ
Briefly: Blocking of hIFNr detection by sera of immunized rats. The class given is binding. The note with it: sera incubated with 200 pg/mL of human IFNr. As to the method: Blood plasma from patients and donors was serially diluted (10^−1 to 10^−6) and incubated with recombinant human IFNr at a final concentration of 200 pg/mL for 1 hour at 37° C. The IFNr level was measured with a human IFNr ELISA kit from BD Biosciences according to the manufacturer's recommendations. All experiments were performed in duplicate.
However, blood sera from Noc2 peptide-immunized rats (n=4) and Peptide 6-immunized rats (n=2) at dilutions of up to 1/10^2 inhibited the detection of hIFNr.

Assay [11] deals with THP1 cells. Description: p-STAT1 in THP1 cells pre-incubated with sera of immunized rats and treated with IFNr. The class given is cell-based. The note with it: 50% sera.

“EE-IFNr: IFNr_1-131 protein with human P121-127 SPAAKTG sequence substituted with murine LPESSLR sequence (SEQ NO: 1) (listed as Mus musculus)”: the “affinity of anti-IFNr AutoAbs by ELISA” value in assay [1] was “markedly decreased in comparison with wild type (WT) IFNr_1-131”. For the same substance, the “binding of plasma from healthy controls in Western blot” value in assay [2] is “no response”. For the same substance, the “p-STAT1 signaling restored / up-regulated” value in assay [3] (IFNr AutoAbs patients' PBMCs pre-incubated with 10% autologous blood plasma) and in assay [7] (IFNr AutoAbs patients' whole blood) was “four of six” throughout. Moreover, the “phosphorylation of STAT1” value in assay [3] (controls' PBMCs pre-incubated with 20% blood plasma with anti-IFNr AutoAbs from patients) is on record as “could induce the phosphorylation of STAT1”. For the same substance, the p-STAT1 signaling entry in [3] (controls' PBMCs, 20% control blood plasma) is reported as “Up-regulation of the p-STAT1 signaling was observed”. The IL-12p40 expression entry in [4] is given as “did restore IL-12p40 expression”. The IL-12p40 production restored result in assay [4] and in assay [8] was “three of six” throughout. Besides, the “HLA-DR expression levels restored / up-regulated” value in [5] is “four of six”. Also, in assay [6], the HLA-DR expression entry is listed as “up-regulation of HLA-DR expression”. The p-STAT1 signal entry in assay [7] (controls' whole blood) is recorded as “up-regulated”.
Take “CAAKTGKRKRSQM (also: conjugated to ovalbumin; UniProt P01579 146-157, looked up, fragment)”: the “antibodies developed after immunization” value in [9] is “developed antibodies to human IFNr, which could cross-react with Aspergillus Noc2”. In assay [10], the “blocking of hIFNr detection by sera of immunized rats (serum dilution)” value is “can block human recombinant IFNr”. The “p-STAT1 signaling after recombinant IFNr in presence of sera of immunized rats” value in assay [11] is given as “decreased up-regulation of p-STAT1 signaling”.
